# Laboratory results published in publication PMC6366420, “Design and synthesis of 4-piperazinyl quinoline derived urea/thioureas for anti-breast cancer activity by a hybrid pharmacophore approach” (Journal of Enzyme Inhibition and Medicinal Chemistry, 2019).
# Read-outs that look alike come from different tables or passages of the source.
# Tests used:
# MDA-MB231 = experiment: SRB antiproliferative assay, MDA-MB231; type: cell-based, human; details: read-out: GI50 MDA-MB231
# Experimental: (§1) The human breast cancer cell lines MDA-MB468, MDA-MB231 and MCF-7 were purchased from ATCC and maintained in RPMI 1640 medium supplemented with 10% fetal bovine serum (Hyclone, Logan UT) and 2 mM L-glutamine. MCF10A and 184B5 immortalised breast cells were purchased from ATCC and maintained in mammary epithelial basal medium supplemented with an MEGM mammary epithelial singlequot kit (Cambrex). Cells were grown at 37 °C with 5% CO2, 95% air under the humidified conditions. Cell line authentication was carried out by Genetica DNA Laboratories (Burlington, NC) using a short tandem repeat profiling method (March 2015; July 2015; September 2016).
# (§2) Cell cytotoxic effects were determined by a SRB-based protocol[2]^,[25].
# (§3) The newly synthesised 4-piperazinylquinoline compounds (5–30) were evaluated for their antiproliferative effects using three breast cancer cell lines, for which the compounds were diluted to achieve seven different concentrations ranging from […]. Followed by 48 h incubation with the compound, cells were treated with sulforhodamine B (SRB) to measure their growth/viability (% of the untreated control) by spectrophotometer. The total cellular macromolecules levels known to accurately reflect by UV reading of SRB staining. […] The reference compounds CQ and cisplatin were included for the comparison.
# 184B5 = experiment: SRB antiproliferative assay, 184B5 non-cancer breast cells; type: cell-based, human; details: read-out: GI50 184B5
# Experimental: as §1, §2, §3
# (§4) We further assessed their antiproliferative effects on two non-cancer immortalised cell lines (184B5 and MCF10A). […] The antiproliferative effects of compound 23 on cancer cells are thus 7-fold (MDA-MB468 vs MCF10A) to 11-fold (MDA-MB231 vs 184B5) higher than matching non-cancer breast cells, which may indicate that compound 23 could potentially be safer than other compounds. Therefore, we examined it further to gain insights into its molecular mechanism of action.
# MDA-MB468 = experiment: SRB antiproliferative assay, MDA-MB468; type: cell-based, human; details: read-out: GI50 MDA-MB468
# Experimental: as §1, §2, §3
# MCF7 = experiment: SRB antiproliferative assay, MCF7; type: cell-based, human; details: read-out: GI50 MCF7
# Experimental: as §1, §2, §3
# MCF10A = experiment: SRB antiproliferative assay, MCF10A non-cancer breast cells; type: cell-based, human; details: read-out: GI50 MCF10A
# Experimental: as §1, §2, §3, §4
# [1] = system: breast cancer and non-cancer breast cell lines; experiment: SRB antiproliferative comparison of breast cancer and non-cancer breast cell lines; type: cell-based, human; details: for higher activity than the reference compounds cisplatin and CQ: breast cancer cell lines, GI50 comparison; for antigrowth effect against cancer versus non-cancer cells (in words): three breast cancer lines vs 184B5 and MCF10A
# Experimental: as §1, §2, §3, §4
# [2] = Homo sapiens, MDA-MB-231, 48 h, SRB, 48 h incubation, MDA-MB231 triple-negative breast cancer cells
# [3] = Homo sapiens, SRB, 48 h incubation, 184B5 non-cancer immortalised breast cells
# [4] = Homo sapiens, MDA-MB-468, 48 h, SRB, 48 h incubation, MDA-MB468 breast cancer cells
# [5] = Homo sapiens, SRB, 48 h incubation, MCF7 breast cancer cells
# [6] = Homo sapiens, MCF-10A, SRB, 48 h incubation, MCF10A non-cancer immortalised breast cells
SMILES,"GI50 (MDA-MB231; Homo sapiens, MDA-MB-231, 48 h) [µM]","GI50 (184B5; Homo sapiens, 184B5, 48 h) [µM]","GI50 (MDA-MB468; Homo sapiens, MDA-MB-468, 48 h) [µM]","GI50 (MCF7; Homo sapiens, MCF7, 48 h) [µM]","GI50 (MCF10A; Homo sapiens, MCF-10A, 48 h) [µM]","GI50 (MDA-MB231; SRB, 48 h incubation, MDA-MB231 triple-negative breast cancer cells) [µM]","GI50 (184B5; SRB, 48 h incubation, 184B5 non-cancer immortalised breast cells) [µM]","GI50 (MDA-MB468; SRB, 48 h incubation, MDA-MB468 breast cancer cells) [µM]","GI50 (MCF7; SRB, 48 h incubation, MCF7 breast cancer cells) [µM]","GI50 (MCF10A; SRB, 48 h incubation, MCF10A non-cancer immortalised breast cells) [µM]",melting point [°C],higher activity than the reference compounds cisplatin and CQ [1],antigrowth effect against cancer versus non-cancer cells (in words) [1],GI50 (MDA-MB231; [2]) [µM],GI50 (184B5; [3]) [µM],GI50 (MDA-MB468; [4]) [µM],GI50 (MCF7; [5]) [µM],GI50 (MCF10A; [6]) [µM]
"CCN(CC)CCCC(C)Nc1ccnc2cc(Cl)ccc12 (centres unmarked) [CQ, Chloroquine, reference compound]",22.5 ± 1.4,76.1 ± 0.2,28.6 ± 0.2,38.4 ± 0.3,81.3 ± 1.4,–,–,–,–,–,–,–,–,–,–,–,–,–
"N.N.[Cl][Pt][Cl] [Cisplatin, reference compound]",–,–,–,–,–,23.6 ± 0.2,25.5 ± 0.6,31 ± 0.3,25.8 ± 0.7,51.5 ± 0.6,–,–,–,–,–,–,–,–
"O=C(Nc1ccccc1)N1CCN(c2ccnc3cc(Cl)ccc23)CC1 [Compound 5, 4-(7-Chloro-quinolin-4-yl)-piperazine-1-carboxylic acid phenylamide]",–,–,–,–,–,–,–,–,–,–,142 to 143,4-8 fold,much stronger activities against cancer than non-cancer cells,5.3 ± 0.5,14.1 ± 0.9,4.7 ± 0.5,6.6 ± 0.6,11.8 ± 1.4
"Cc1ccc(C)c(NC(=O)N2CCN(c3ccnc4cc(Cl)ccc34)CC2)c1 [Compound 6, 4-(7-Chloro-quinolin-4-yl)-piperazine-1-carboxylic acid (2,5-dimethyl-phenyl)-amide]",–,–,–,–,–,–,–,–,–,–,118 to 119,–,higher activity against non-cancer cells than cancer cells,50.6 ± 3.2,19.8 ± 1,35.5 ± 1.3,28.9 ± 1.4,18.8 ± 1.3
"O=C(Nc1ccc(C(F)(F)F)cc1)N1CCN(c2ccnc3cc(Cl)ccc23)CC1 [Compound 7, 4-(7-Chloro-quinolin-4-yl)-piperazine-1-carboxylic acid (4-trifluoromethyl-phenyl)-amide]",–,–,–,–,–,–,–,–,–,–,–,–,higher activity against non-cancer cells than cancer cells,21.8 ± 1.5,4.7 ± 0.3,19.8 ± 0.8,16.6 ± 1.2,4.6 ± 0.3
"O=C(Nc1c(Cl)cc(Cl)cc1Cl)N1CCN(c2ccnc3cc(Cl)ccc23)CC1 [Compound 8, 4-(7-Chloro-quinolin-4-yl)-piperazine-1-carboxylic acid (2,4,6-trichloro-phenyl)-amide]",–,–,–,–,–,–,–,–,–,–,168 to 169,–,comparable against cancer and non-cancer cells,29.1 ± 1.7,22.3 ± 1.7,30.4 ± 2,23.7 ± 2.4,23.7 ± 1
"O=C(Nc1cccc2ccccc12)N1CCN(c2ccnc3cc(Cl)ccc23)CC1 [Compound 9, 4-(7-Chloro-quinolin-4-yl)-piperazine-1-carboxylic acid naphthalen-1-ylamide]",–,–,–,–,–,–,–,–,–,–,138 to 139,4-8 fold,much stronger activities against cancer than non-cancer cells,9.1 ± 1,21.8 ± 1,7.1,9.4 ± 0.8,21.8 ± 1
"O=C(NC1CCCCC1)N1CCN(c2ccnc3cc(Cl)ccc23)CC1 [Compound 10, 4-(7-Chloro-quinolin-4-yl)-piperazine-1-carboxylic acid cyclohexylamide]",–,–,–,–,–,–,–,–,–,–,112 to 113,–,comparable against cancer and non-cancer cells,20.8 ± 1.3,16.3 ± 1,10.9 ± 0.8,6 ± 0.5,15.7 ± 1.3
"O=C(Nc1ccccc1)N1CCN(c2ccnc3cc(C(F)(F)F)ccc23)CC1 [Compound 11, 4-(7-Trifluoromethyl-quinolin-4-yl)-piperazine-1-carboxylic acid phenylamide]",–,–,–,–,–,–,–,–,–,–,146 to 147,–,comparable against cancer and non-cancer cells,20.6 ± 1.4,12.2 ± 1.3,57.6 ± 3.2,11 ± 0.6,21.1 ± 1.6
"Cc1ccc(C)c(NC(=O)N2CCN(c3ccnc4cc(C(F)(F)F)ccc34)CC2)c1 [Compound 12, 4-(7-Trifluoromethyl-quinolin-4-yl)-piperazine-1-carboxylic acid (2,5-dimethyl-phenyl)-amide]",–,–,–,–,–,–,–,–,–,–,108 to 109,–,higher activity against non-cancer cells than cancer cells,39.6 ± 2.1,7.6 ± 0.7,21.7 ± 1,22.5 ± 1.4,8.8 ± 0.9
"O=C(Nc1ccc(C(F)(F)F)cc1)N1CCN(c2ccnc3cc(C(F)(F)F)ccc23)CC1 [Compound 13, 4-(7-Trifluoromethyl-quinolin-4-yl)-piperazine-1-carboxylic acid (4-trifluoromethyl-phenyl)-amide]",–,–,–,–,–,–,–,–,–,–,154 to 155,–,higher activity against non-cancer cells than cancer cells,15.3 ± 1.3,1.1 ± 0.1,2.7 ± 0.1,2 ± 0.1,1 ± 0.1
"O=C(Nc1c(Cl)cc(Cl)cc1Cl)N1CCN(c2ccnc3cc(C(F)(F)F)ccc23)CC1 [Compound 14, 4-(7-Trifluoromethyl-quinolin-4-yl)-piperazine-1-carboxylic acid (2,4,6-trichloro-phenyl)-amide]",–,–,–,–,–,–,–,–,–,–,142 to 143,–,comparable against cancer and non-cancer cells,21.1 ± 1.3,33.2 ± 2.1,22.5 ± 0.2,12.6 ± 1.2,17.4 ± 0.5
"O=C(Nc1cccc2ccccc12)N1CCN(c2ccnc3cc(C(F)(F)F)ccc23)CC1 [Compound 15, 4-(7-Trifluoromethyl-quinolin-4-yl)-piperazine-1-carboxylic acid naphthalen-1-ylamide]",–,–,–,–,–,–,–,–,–,–,127 to 128,–,comparable against cancer and non-cancer cells,17.8 ± 1,27.9 ± 1.7,9.6 ± 0.9,7.5 ± 0.6,11.1 ± 0.9
"O=C(NC1CCCCC1)N1CCN(c2ccnc3cc(C(F)(F)F)ccc23)CC1 [Compound 16, 4-(7-Trifluoromethyl-quinolin-4-yl)-piperazine-1-carboxylic acid cyclohexylamide]",–,–,–,–,–,–,–,–,–,–,132 to 133,–,comparable against cancer and non-cancer cells,20.8 ± 2.3,20.8 ± 1.4,12.7 ± 0.5,4.9 ± 0.3,20.9 ± 1
